One may read the IC50 as the concentration that gives 50% inhibition. A higher IC50 goes with weaker potency in that assay.

Our source for the IC50 values is BindingDB's records for doi:10.1021/jm950699x (Rhône-Poulenc Rorer, 1996).

Bounds are passed on as bounds.

The assay addresses Leukotriene B4 receptor (Cavia porcellus). Briefly: Compound was evaluated for Leukotriene B4 receptor binding, obtained from radioligand binding assay using guinea pig spleen cell membrane.

In the case of `CCOC(=O)/C=C/c1cn(CC(=O)N(C)CCc2ccccc2)c2ccc(OCc3ccccc3)cc12` [(E)-3-{5-Benzyloxy-1-[(methyl-phenethyl-carbamoyl)-methyl]-1H-indol-3-yl}-acrylic acid ethyl ester], the IC50 was > 300 nM.
